From patent US12173020B2, “New-type oxazolidinone compounds and preparation method therefor” (priority 2019, dated 2024)

Key:
[1] = tested on: methicillin-resistant Staphylococcus aureus (MRSA); assay: agar dilution method, inhibitory effect on MRSA; format: cell-based; details: for MIC50: Staphylococcus aureus, read-out: Minimum inhibitory concentration (MIC50, μg/ml) MRSA
Source text: (§1) In order to determine the antibacterial activity of these new oxazolidinone-based compounds, an agar dilution method was used to test the inhibitory effect on methicillin-resistant Staphylococcus aureus (MRSA) and vancomycin-resistant Enterococcus (VRE). The bacteria inhibition effect was expressed as minimum inhibitory concentration (MIC50, μg/ml) The test results are shown in the following table.

[2] = tested on: vancomycin-resistant Enterococcus (VRE); assay: agar dilution method, inhibitory effect on VRE; format: cell-based; details: for MIC50: Enterococcus, read-out: Minimum inhibitory concentration (MIC50, μg/ml) VRE
Source text: as §1

| Compound | MIC50 [1] [µg/mL] | MIC50 [2] [µg/mL] | Minimum inhibitory concentration (MIC50, μg/ml) MRSA [1] [µg/mL] | Minimum inhibitory concentration (MIC50, μg/ml) VRE [2] [µg/mL] |
| --- | --- | --- | --- | --- |
| C=Cn1nnc(-c2ccc(-c3ccc(N4C[C@H](C(O)F)OC4=O)cc3F)cn2)n1.O=P(O)(O)O (stereo partly drawn) [compound 125, (R)-3-(3-fluoro-4-(6-(2-vinyl-2H-tetrazol-5-yl)pyridin-3-yl)phenyl)-5-(hydroxyfluoromethyl) oxazolidin-2-one phosphate] | 0.3 | 0.3 |  |  |
| O=C1O[C@H](C(OP(=O)(O)O)C(F)(F)F)CN1c1ccc(-c2ccc(-c3nnn(C4CC4)n3)nc2)c(F)c1 (stereo partly drawn) [compound 112, (S)-3-(3-fluoro-4-(6-(2-cyclopropyl-2H-tetrazol-5-yl)pyridin-3-yl)phenyl)-5-(1-hydroxy-2-trifluoroethyl) oxazolidin-2-one phosphate] |  |  | 0.9 | 0.9 |
| Cn1nnc(-c2ccc(-c3ccc(N4C[C@@H](C(O)F)OC4=O)cc3F)cn2)n1.O=P(O)(O)O (stereo partly drawn) [compound 92, (S)-3-(3-fluoro-4-(6-(2-methyl-2H-tetrazol-5-yl)pyridin-3-yl)phenyl)-5-(hydroxyfluoromethyl) oxazolidin-2-one phosphate] | 0.9 | 0.9 |  |  |
